Primed or numbered codes have the meaning given here. Ends that are not written are not given here. Peptide text beside a SMILES is read from it. * marks the point of attachment. ξ: configuration not given here. Biotin = O=C1N[C@H]2[C@H](CS[C@H]2CCCCC(=O)*)N1; lipoyl″ = O=C(CCCC[C@@H]1CCSS1)*; Lipoyl(6ξ) = O=C(CCCCC1CCSS1)* A value given as a limit tells only on which side of the number the result lay.

Data on 6 compounds can be found in patent US11726088B2, “Sirtuin 4 (SIRT4) lipoamidase activity and uses thereof” (THE TRUSTEES OF PRINCETON UNIVERSITY, priority 2014, dated 2023).

Assay [1] deals with T1, SIRT4 (Homo sapiens, UniProt Q9Y6E7).
T1 construct: 6xHis (followed by human rhinovirus 3C protease site) (N); made in house; host or cells: E. coli BL21(DE3), co-expressed with GroEL and GroES
T1 sequence (Q9Y6E7 33-314): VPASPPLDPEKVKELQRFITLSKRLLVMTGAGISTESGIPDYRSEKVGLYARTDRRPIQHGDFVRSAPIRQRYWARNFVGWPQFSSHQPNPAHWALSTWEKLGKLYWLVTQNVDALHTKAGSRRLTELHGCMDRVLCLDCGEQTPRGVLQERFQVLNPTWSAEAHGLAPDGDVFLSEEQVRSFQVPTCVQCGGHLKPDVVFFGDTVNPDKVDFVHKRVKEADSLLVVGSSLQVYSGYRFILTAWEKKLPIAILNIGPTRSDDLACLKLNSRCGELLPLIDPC
Briefly: HPLC-based SIRT4 kinetics assays (steady-state, acyl-modified peptide substrates). The format is biochemical. Conditions: SIRT4 enzyme concentration = 5 μM; NAD 1 mM; 25° C. From the text:
Recombinant SIRT4 protein expression and purification. N-terminally truncated human Sirt4 (33-314 of SEQ ID NO: 2) was cloned into a derivative of pET-15b containing a human rhinovirus 3C Protease cleavage site in place of its thrombin cleavage site. 6×His-Sirt4 was co-expressed with GroEL and GroES in BL21(DE3) E. coli in order to promote proper protein folding. Protein was purified using immobilized-metal affinity chromatography (IMAC) followed by anion-exchange chromatography to remove associated folding chaperones. For some experiments the His-tag was removed using 3C protease. Protein was concentrated, snap frozen in N2(l), and stored at −80° C. HPLC-based SIRT4 kinetics assays. SIRT4 kinetic assays were essentially performed as described by others^3,4. Briefly, enzyme reactions (20 μL) were performed in 50 mM Tris, pH 8.0, containing 5 μM recombinant SIRT4 and varying concentrations (0 to 2500 μM) of H3K9- or DLAT-modified peptides with either acetyl-lysine, biotinyl-lysine, or lipoyl-lysine. Reactions were initiated by addition of NAD (1 mM) and incubated at 25° C. for between 30-120 min, depending on substrate-specific reaction rates and to maintain steady-state conditions. Reactions were quenched with formic acid to a final concentration of 0.5% (v/v) and analyzed by HPLC-UV detection (Ultimate 3000 RSLC/VWD-3400). Substrate and product were separated by reverse-phase chromatography (Acclaim PepMap RSLC, 75 μm×15 cm) at 0.75 μL/min. Product concentration was measured by peak integration of A280 signals. Initial reaction velocities were determined in at least duplicate and fit to a modified Briggs-Haldane equation, which substituted kcat×[SIRT4] for Vmax and allowed determination of kinetic parameters, kcat, Km and kcat/Km and their associated error (±SEM), using GraphPad Prism 5. SIRT4's catalytic efficiency towards the various acyl-modified peptide substrates was assessed (Table 1 below).

In assay [2] the target is T1, SIRT4. In words: LC-MS-based in vitro peptide deacylation assay. The format is biochemical. Conditions: 5 μM SIRT4, 10 uM peptide, with NAD, 1 hr at 37° C. From the text:
Recombinant SIRT4 protein expression and purification. N-terminally truncated human Sirt4 (33-314 of SEQ ID NO: 2) was cloned into a derivative of pET-15b containing a human rhinovirus 3C Protease cleavage site in place of its thrombin cleavage site. 6×His-Sirt4 was co-expressed with GroEL and GroES in BL21(DE3) E. coli in order to promote proper protein folding. Protein was purified using immobilized-metal affinity chromatography (IMAC) followed by anion-exchange chromatography to remove associated folding chaperones. For some experiments the His-tag was removed using 3C protease. Protein was concentrated, snap frozen in N2(l), and stored at −80° C.
LC-MS-based in vitro peptide deacylation assay. The ability of SIRT4 to hydrolyze various acyl-lysine modifications was measured using LC-MS. In 20 μL reaction volume, 10 uM peptide (lipoyl-, biotinyl-, or acetyl-lysine) was incubated with increasing concentrations of SIRT4 (0.5 μM, 2.5 μM, and 5 μM), with or without NAD, in 50 mM TrisHCl, pH 8, 137 mM NaCl, 2.7 mM KCl and 1 mM MgCl2, for 1 hr at 37° C. Reactions were quenched with 25 μL of 2% TFA and an internal control peptide was spiked in to monitor for run-to-run variability. Reaction products were desalted, eluted, concentrated and analyzed by nano-LC-MS/MS, as above, but altered LC gradients. A 30 min linear gradient from 4-40% B was used for all peptides, except for lipoyl-lysine biological peptides, which used a 12-70% B linear gradient. Data were imported into Skyline software (version 2.1) to obtain precursor extracted ion chromatographams (XICs) using the following settings: Isotope Count, 3; precursor mass analyzer, Orbitrap; Resolving power, 60,000 @ 400 Th. The retention times of substrate (modified) and product (unmodified) peptides were confirmed by fragmentation spectra and peak integration boundaries were manually inspected. Three biological replicates were analyzed for each reaction.
The lipoamide cofactor bound to E2 (transferase enzymes) is required for dehydrogenase complex activity (FIG. 1b). Given that other mitochondrial SIRTs can hydrolyze various […] group lysine modifications^3,4 and that all PDHC components were present in our SIRT4 isolation, we speculated that E2 dehydrogenase components may be biological substrates of SIRT4, and that SIRT4 may directly hydrolyze the lipoamid modification. To test this we screened the in vitro activity of recombinant SIRT4 against differentially-modified synthetic peptides (FIG. 10). Firstly, SIRT4 activity towards acyl-modified H3K9 peptides (SEQ ID NOs: 3-5) was measured using a liquid-chromatography (LC)-MS-based deacylation assay. SIRT4 was incubated with H3K9 peptides modified with acetyl-lysine (SEQ ID NO: 5), biotinyl-lysine (SEQ ID NO: 4) or lipoyl-lysine (SEQ ID NO: 3), in the presence or absence of NAD. Following reaction, the remaining unreacted substrates and newly generated unmodified peptides were identified and quantified by LC-MS (FIG. 2A, 2G-2I and FIG. 5). […] To compare the relative preference of SIRT4 for these different substrates, we used extracted ion chromatograms to quantify unreacted substrate (S) and product (P) amounts from all reactions, and represented the percentage of unmodified peptide generated (FIG. 2H). […] The relative amount of unmodified product generated using 5 μM SIRT4 was 11% (lipoyl—SEQ ID NO: 3), 3% (biotinyl—SEQ ID NO: 4) and 0.3% (acetyl—[…]) (FIG. 2B and FIG. 2H, H3K9 substrates). […]

Consider “MCD K471 Acetyl: synthetic MCD K471 peptide SYLGSKNIKASEW with acetyl-lysine (SEQ ID NO: 29) (also: acetyl-lysine at K471, K6 or K9 not given here)”, for which, in the assay with SIRT4 [1], the Km (commonly the substrate concentration at which the rate is half of its maximum) was > 2500 µM.

As to `CC[C@H](C)[C@H](NC(=O)[C@@H](NC(=O)[C@H](C)NC(=O)[C@H](CCCCNC(C)=O)NC(=O)[C@H](CC(=O)O)NC(=O)[C@@H](NC(=O)[C@H](CCC(=O)O)NC(=O)[C@@H](NC(=O)[C@@H](N)CCC(=O)O)[C@@H](C)CC)[C@@H](C)O)[C@@H](C)O)C(=O)NCC(=O)N[C@@H](Cc1c[nH]c2ccccc12)C(=O)O` [DLAT K259 Acetyl] (H-EIETDK(Ac)ATIGW-OH), on SIRT4 [1], the Km is > 2500 µM.

Regarding `C[C@H](NC(=O)[C@@H](NC(=O)[C@H](CCC(N)=O)NC(=O)[C@@H](N)CCCCN)[C@@H](C)O)C(=O)N[C@@H](CCCNC(=N)N)C(=O)N[C@@H](CCCCNC(=O)CCCCC1CCSS1)C(=O)N[C@@H](CO)C(=O)N[C@H](C(=O)NCC(=O)NCC(=O)N[C@@H](Cc1c[nH]c2ccccc12)C(=O)N[C@@H](Cc1c[nH]c2ccccc12)C(=O)O)[C@@H](C)O` (stereo partly drawn) [H3 K9 Lipoyl] (H-KQTARK(Lipoyl(6ξ))STGGWW-OH), the Km on SIRT4 [1] came to 814 ± 163 µM. In addition, the “relative amount of unmodified product generated” value (shortened to “relative amount”) at SIRT4 [2] is on record as 11%. Taken in the same sequence, the figures for `CC(=O)NCCCC[C@H](NC(=O)[C@H](CCCNC(=N)N)NC(=O)[C@H](C)NC(=O)[C@@H](NC(=O)[C@H](CCC(N)=O)NC(=O)[C@@H](N)CCCCN)[C@@H](C)O)C(=O)N[C@@H](CO)C(=O)N[C@H](C(=O)NCC(=O)NCC(=O)N[C@@H](Cc1c[nH]c2ccccc12)C(=O)N[C@@H](Cc1c[nH]c2ccccc12)C(=O)O)[C@@H](C)O` [H3 K9 Acetyl] (H-KQTARK(Ac)STGGWW-OH) were > 2500 µM and 0.3%.

Turning to `C[C@H](NC(=O)[C@@H](NC(=O)[C@H](CCC(N)=O)NC(=O)[C@@H](N)CCCCN)[C@@H](C)O)C(=O)N[C@@H](CCCNC(=N)N)C(=O)N[C@@H](CCCCNC(=O)CCCC[C@@H]1SC[C@@H]2NC(=O)N[C@@H]21)C(=O)N[C@@H](CO)C(=O)N[C@H](C(=O)NCC(=O)NCC(=O)N[C@@H](Cc1c[nH]c2ccccc12)C(=O)N[C@@H](Cc1c[nH]c2ccccc12)C(=O)O)[C@@H](C)O` [H3 K9 Biotinyl] (H-KQTARK(Biotin)STGGWW-OH), the Km at SIRT4 [1] is 719 ± 79 µM. Also, the “relative amount” value on SIRT4 [2] is 3%. On to “PDHX: lipoyl-modified PDHX peptide substrate (SEQ ID NO: 12); unmodified product is SEQ ID NO: 13 (EIETDK(lipoyl″)AVVTWW)”, for which the “relative amount” value with SIRT4 [2] is reported as 42%.
